Key:
Assay in all cases: Kinase selectivity, scanMAX Kinase assay panel (DiscoverX), % control at 1 uM
Assay type in all cases: binding
[1] = target: T1, scanMAX Kinase assay panel (Homo sapiens, UniProt O94768); details: DRAK2; 1 uM; read-out: Percent Control (%)
T1 construct: purchased DiscoverX
T1 sequence (O94768 1-372): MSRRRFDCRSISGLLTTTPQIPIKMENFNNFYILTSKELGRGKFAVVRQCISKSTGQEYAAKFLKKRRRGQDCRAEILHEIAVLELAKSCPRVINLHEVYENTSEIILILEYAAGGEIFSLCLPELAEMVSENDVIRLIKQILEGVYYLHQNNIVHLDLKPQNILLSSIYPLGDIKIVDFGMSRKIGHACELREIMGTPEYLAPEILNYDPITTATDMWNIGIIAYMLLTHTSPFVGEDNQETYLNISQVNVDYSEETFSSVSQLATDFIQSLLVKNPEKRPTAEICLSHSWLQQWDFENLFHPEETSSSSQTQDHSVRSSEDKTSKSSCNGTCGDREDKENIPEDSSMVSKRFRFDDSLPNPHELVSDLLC
How it was run: (§1)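 Compounds were tested at 1 uM in DMSO against each enzyme in the panel. Percent control was calculated as (compound − positive control)/(negative control − positive control) × 100, and a compound was scored active on a kinase when this value fell below 35.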

[2] = target: T2, scanMAX Kinase assay panel (Homo sapiens, UniProt Q8IYT8); details: ULK2; 1 uM; read-out: Percent Control (%)
T2 construct: purchased DiscoverX
T2 sequence (Q8IYT8 1-1036): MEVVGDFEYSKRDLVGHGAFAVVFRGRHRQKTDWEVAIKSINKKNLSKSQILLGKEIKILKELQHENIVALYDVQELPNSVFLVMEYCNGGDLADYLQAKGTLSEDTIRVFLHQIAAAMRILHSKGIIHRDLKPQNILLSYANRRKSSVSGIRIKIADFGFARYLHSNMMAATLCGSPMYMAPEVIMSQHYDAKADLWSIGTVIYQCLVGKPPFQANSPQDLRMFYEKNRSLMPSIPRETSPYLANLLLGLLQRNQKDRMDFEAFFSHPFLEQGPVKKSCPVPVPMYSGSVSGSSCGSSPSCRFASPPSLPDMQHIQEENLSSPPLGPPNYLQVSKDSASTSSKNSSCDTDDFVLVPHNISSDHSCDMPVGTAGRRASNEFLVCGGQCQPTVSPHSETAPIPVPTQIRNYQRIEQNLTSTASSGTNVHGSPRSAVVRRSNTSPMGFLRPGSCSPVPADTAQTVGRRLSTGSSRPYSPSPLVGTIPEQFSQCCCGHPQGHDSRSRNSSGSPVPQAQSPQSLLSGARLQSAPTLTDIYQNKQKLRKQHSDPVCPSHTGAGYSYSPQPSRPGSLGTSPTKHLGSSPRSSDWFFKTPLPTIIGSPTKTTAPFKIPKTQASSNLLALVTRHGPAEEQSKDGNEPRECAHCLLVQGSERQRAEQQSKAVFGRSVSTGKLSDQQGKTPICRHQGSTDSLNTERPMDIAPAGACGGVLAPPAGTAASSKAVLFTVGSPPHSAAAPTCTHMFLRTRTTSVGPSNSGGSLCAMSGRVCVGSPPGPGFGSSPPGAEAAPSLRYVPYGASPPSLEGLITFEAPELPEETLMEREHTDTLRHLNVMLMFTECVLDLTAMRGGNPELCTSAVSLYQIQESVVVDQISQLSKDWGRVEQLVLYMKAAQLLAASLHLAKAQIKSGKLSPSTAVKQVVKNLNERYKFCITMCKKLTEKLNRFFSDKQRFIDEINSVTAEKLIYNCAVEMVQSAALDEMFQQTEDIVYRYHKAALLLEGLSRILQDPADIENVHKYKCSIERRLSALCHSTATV
How it was run: as §1

[3] = target: T3, scanMAX Kinase assay panel (Homo sapiens, UniProt P35916); details: FLT4; 1 uM; read-out: Percent Control (%)
T3 construct: purchased DiscoverX
How it was run: as §1

[4] = target: T4, scanMAX Kinase assay panel (Homo sapiens, UniProt Q9Y6R4); details: MAP3K4; 1 uM; read-out: Percent Control (%)
T4 construct: purchased DiscoverX
How it was run: as §1

[5] = target: T5, scanMAX Kinase assay panel (Homo sapiens, UniProt O00238); details: BMPR1B; 1 uM; read-out: Percent Control (%)
T5 construct: purchased DiscoverX
How it was run: as §1

[6] = target: T6, scanMAX Kinase assay panel (Homo sapiens, UniProt Q07912); details: TNK2; 1 uM; read-out: Percent Control (%)
T6 construct: purchased DiscoverX
How it was run: as §1

[7] = target: T7, scanMAX Kinase assay panel (Homo sapiens, UniProt Q13043); details: MST1; 1 uM; read-out: Percent Control (%)
T7 construct: purchased DiscoverX
T7 sequence (Q13043 1-487): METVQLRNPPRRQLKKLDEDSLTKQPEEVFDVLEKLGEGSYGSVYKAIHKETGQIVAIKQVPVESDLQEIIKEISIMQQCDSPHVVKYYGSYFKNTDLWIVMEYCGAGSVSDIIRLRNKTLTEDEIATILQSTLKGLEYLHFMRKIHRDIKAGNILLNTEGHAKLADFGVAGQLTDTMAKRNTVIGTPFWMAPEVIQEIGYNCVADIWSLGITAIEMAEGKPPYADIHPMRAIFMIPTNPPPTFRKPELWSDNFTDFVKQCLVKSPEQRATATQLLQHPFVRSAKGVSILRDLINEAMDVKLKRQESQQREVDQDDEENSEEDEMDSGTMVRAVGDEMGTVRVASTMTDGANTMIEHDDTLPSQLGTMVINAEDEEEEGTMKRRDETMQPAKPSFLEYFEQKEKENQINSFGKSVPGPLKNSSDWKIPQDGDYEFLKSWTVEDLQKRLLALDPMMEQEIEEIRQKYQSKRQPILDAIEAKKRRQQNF
How it was run: as §1

[8] = target: T8, scanMAX Kinase assay panel (Homo sapiens, UniProt Q9UQB9); details: AURKC; 1 uM; read-out: Percent Control (%)
T8 construct: purchased DiscoverX
T8 sequence (Q9UQB9 1-309): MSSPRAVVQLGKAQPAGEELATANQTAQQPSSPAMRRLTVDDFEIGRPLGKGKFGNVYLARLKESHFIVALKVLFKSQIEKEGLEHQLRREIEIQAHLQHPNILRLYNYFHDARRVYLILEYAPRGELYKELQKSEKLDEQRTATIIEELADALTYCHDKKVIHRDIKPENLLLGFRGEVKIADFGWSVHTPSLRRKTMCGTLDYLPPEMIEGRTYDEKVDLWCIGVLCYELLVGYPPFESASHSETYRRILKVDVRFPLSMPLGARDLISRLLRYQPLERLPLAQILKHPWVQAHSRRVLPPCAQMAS
How it was run: as §1

T5 sequence (O00238 14-502): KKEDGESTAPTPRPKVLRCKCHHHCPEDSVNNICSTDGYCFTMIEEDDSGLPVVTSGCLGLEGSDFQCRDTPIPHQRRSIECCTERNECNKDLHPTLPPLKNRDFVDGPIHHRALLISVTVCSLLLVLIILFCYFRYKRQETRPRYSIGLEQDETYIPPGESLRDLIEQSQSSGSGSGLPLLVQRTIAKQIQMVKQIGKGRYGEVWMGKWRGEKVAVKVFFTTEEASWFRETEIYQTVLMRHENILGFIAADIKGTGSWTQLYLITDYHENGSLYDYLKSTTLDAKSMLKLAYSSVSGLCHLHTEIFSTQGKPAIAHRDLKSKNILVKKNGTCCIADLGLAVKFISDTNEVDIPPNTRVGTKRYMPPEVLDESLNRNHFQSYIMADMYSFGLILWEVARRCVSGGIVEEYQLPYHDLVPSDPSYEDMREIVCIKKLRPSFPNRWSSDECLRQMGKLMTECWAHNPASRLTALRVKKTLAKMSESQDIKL
T4 sequence (Q9Y6R4 whole entry): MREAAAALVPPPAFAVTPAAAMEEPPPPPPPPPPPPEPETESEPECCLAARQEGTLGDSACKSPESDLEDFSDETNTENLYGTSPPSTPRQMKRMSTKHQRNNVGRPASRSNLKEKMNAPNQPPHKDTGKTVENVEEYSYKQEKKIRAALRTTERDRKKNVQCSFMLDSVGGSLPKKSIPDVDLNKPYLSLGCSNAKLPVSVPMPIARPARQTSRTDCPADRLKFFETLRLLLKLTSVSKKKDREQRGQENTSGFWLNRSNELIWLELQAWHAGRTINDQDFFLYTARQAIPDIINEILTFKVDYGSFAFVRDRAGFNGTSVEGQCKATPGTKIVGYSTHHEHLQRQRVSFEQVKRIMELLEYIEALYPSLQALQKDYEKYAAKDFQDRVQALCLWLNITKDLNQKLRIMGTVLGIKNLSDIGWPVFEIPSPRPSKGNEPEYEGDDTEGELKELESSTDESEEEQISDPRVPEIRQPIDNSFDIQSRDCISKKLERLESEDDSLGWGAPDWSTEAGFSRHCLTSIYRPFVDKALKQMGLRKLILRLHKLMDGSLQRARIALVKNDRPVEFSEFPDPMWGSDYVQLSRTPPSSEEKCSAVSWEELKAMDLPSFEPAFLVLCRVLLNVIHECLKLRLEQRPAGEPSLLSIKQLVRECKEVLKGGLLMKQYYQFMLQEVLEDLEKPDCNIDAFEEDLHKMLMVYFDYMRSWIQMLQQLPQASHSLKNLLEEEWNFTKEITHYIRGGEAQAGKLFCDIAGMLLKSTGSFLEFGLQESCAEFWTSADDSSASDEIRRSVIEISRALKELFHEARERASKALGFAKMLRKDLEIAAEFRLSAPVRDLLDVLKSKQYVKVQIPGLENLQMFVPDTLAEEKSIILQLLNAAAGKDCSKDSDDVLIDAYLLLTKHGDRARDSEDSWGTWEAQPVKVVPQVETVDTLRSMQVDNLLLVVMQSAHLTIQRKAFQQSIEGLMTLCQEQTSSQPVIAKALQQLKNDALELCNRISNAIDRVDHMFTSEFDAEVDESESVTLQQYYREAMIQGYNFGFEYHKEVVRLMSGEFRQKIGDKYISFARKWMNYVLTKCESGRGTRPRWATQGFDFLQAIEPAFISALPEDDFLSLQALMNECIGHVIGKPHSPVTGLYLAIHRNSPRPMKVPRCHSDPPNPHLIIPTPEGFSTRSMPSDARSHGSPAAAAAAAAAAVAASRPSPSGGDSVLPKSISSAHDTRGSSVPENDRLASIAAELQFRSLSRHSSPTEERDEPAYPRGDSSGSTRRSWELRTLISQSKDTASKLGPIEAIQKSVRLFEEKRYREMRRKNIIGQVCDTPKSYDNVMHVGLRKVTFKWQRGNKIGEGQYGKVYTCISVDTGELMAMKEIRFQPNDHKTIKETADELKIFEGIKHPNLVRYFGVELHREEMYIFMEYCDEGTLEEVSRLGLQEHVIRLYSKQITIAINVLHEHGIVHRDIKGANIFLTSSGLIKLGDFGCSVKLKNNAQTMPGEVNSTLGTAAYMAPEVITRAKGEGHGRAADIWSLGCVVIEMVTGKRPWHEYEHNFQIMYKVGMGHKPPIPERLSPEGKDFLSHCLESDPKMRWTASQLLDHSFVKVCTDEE
T6 sequence (Q07912 whole entry): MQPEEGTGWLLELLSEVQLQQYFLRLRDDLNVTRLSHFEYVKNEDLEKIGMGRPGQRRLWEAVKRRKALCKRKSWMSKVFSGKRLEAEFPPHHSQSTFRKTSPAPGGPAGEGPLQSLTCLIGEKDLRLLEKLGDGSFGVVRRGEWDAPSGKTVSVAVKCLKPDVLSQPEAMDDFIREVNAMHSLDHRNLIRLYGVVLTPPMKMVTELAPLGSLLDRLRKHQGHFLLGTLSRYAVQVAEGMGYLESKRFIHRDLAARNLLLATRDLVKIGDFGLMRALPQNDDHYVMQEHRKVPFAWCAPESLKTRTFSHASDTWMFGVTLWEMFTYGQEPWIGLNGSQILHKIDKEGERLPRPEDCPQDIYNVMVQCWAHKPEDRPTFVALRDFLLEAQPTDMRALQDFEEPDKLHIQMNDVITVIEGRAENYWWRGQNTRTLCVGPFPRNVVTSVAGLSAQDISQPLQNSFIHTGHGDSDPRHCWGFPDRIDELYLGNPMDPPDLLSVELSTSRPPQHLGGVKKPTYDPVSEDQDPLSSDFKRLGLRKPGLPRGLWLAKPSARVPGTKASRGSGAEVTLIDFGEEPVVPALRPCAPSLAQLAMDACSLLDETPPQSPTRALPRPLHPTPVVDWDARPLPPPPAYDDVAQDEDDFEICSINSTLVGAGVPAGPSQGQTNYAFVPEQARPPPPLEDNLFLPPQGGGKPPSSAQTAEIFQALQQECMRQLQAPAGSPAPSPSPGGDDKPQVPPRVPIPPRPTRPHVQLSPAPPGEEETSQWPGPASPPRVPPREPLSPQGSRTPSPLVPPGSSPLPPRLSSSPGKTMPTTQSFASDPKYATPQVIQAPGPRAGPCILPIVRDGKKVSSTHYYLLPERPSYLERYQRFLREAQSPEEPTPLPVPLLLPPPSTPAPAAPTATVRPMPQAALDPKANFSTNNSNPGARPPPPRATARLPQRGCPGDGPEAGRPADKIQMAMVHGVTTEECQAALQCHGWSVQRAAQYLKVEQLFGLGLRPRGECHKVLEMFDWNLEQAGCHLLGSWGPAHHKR
T3 sequence (P35916 25-1363): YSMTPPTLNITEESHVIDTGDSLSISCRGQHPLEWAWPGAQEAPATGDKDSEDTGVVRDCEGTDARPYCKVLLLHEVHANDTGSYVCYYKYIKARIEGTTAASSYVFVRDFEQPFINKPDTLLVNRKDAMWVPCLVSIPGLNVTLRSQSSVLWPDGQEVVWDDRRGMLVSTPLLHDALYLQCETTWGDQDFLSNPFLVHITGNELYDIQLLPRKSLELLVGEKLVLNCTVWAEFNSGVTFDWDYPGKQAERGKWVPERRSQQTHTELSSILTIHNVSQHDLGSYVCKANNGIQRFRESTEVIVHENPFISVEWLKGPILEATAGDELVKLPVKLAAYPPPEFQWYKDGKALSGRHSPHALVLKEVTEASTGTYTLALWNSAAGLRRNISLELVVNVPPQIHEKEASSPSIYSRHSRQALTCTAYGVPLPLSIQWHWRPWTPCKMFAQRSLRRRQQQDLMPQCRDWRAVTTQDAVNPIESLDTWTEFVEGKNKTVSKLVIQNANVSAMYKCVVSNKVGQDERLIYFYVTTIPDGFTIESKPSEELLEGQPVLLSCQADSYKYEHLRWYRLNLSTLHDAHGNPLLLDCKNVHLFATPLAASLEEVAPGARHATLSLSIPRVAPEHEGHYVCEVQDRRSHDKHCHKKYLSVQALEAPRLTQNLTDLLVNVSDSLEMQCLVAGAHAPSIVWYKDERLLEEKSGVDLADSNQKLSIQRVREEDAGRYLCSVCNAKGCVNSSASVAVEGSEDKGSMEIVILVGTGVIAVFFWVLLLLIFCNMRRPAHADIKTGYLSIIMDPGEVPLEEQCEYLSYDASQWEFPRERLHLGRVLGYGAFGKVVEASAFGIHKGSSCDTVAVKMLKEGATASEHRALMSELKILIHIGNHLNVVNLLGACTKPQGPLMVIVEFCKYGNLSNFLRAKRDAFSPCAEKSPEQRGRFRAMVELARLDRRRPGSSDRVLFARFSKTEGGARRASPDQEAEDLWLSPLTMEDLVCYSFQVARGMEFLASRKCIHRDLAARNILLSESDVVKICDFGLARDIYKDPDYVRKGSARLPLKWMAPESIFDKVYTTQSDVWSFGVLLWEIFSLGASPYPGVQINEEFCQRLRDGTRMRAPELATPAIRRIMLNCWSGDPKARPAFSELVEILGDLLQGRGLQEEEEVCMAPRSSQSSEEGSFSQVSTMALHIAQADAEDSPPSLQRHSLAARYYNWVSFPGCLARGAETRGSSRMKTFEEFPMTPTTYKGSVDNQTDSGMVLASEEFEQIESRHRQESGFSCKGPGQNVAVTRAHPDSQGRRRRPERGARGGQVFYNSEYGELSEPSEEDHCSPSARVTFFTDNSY

Row | Compound | remaining binding at 1 µM [1] | remaining binding at 1 µM [2] | remaining binding at 1 µM [3] | remaining binding at 1 µM [4] | remaining binding at 1 µM [5] | remaining binding at 1 µM [6] | remaining binding at 1 µM [7] | remaining binding at 1 µM [8]
1 | Cc1ccc(C(=O)Nc2ccc(CN3CCN(C)CC3)c(C(F)(F)F)c2)cc1C#Cc1cnc2c(Nc3cnn(C)c3)cccn12 [Example 1, 4-methyl-3-((8-((1-methyl-1H-pyrazol-4-yl)amino)imidazo[1,2-a]pyridin-3-yl)ethynyl)-N-(4-((4-methylpiperazin-1-yl)methyl)-3-(trifluoromethyl)phenyl)benzamide] | 90% | 62% | 1% | 70% | 99% | 2% | 27% | 1%
2 | Cc1cn(-c2cc(NC(=O)c3ccc(C)c(C#Cc4cnc5c(Nc6cnn(C)c6)cccn45)c3)cc(C(F)(F)F)c2)cn1 [Example 12, 4-methyl-N-(3-(4-methyl-1H-imidazol-1-yl)-5-(trifluoromethyl)phenyl)-3-((8-((1-methyl-1H-pyrazol-4-yl)amino)imidazo[1,2-a]pyridin-3-yl)ethynyl)benzamide] | 95% | 100% | 6% | 92% | 100% | 28% | 84% | 48%
3 | Cc1ccc(NC(=O)C2(C(=O)Nc3ccc(F)cc3)CC2)cc1C#Cc1cnc2c(Nc3cnn(C(C)C)c3)cccn12 [Example 78] | 100% | 90% | 26% | 90% | 100% | 100% | 100% | 88%

Reference: patent US10870647B2, “Imidazopyridine derivative, method for preparing same, and pharmaceutical composition containing same as active ingredient for preventing or treating cancer” (DAEGU-GYEONGBUK MEDICAL INNOVATION FOUNDATION, priority 2016, dated 2020)
